Measured values from patent US11718628B2, “SREBP inhibitors comprising a 6-membered central ring” (Capulus Therapeutics, LLC, priority 2018, dated 2023).

How the values were obtained:
HepG2 cells = assay: Gene expression of HepG2 cells (quantitative PCR); format: cell-based; set-up: key to LSS gene expression / MVK gene expression / SREBP1 gene expression / SREBP2 gene expression / SCAP gene expression / SCD gene expression / MVD gene expression / ACACA gene expression / ACACB gene expression / ACLY gene expression / ACSS1 gene expression / ACSS2 gene expression / ELOVL6 gene expression / FASN gene expression / HMGCR gene expression: relative expression vs mock/vehicle (ΔΔCT, β-actin normalized); details: 500 nM, 48 hrs
Protocol: Gene Expression: The effect of selected compounds described herein on the gene expression of HepG2 cells was evaluated. HepG2 cells (P2) were seeded in 24 well plate (80,000 cells/well) for RNA extraction and in a 96 well plate (10,000 cells/well) for Cell Titer Glow (CTG). The media used was DMEM and contained 10% FBS. Each compound was evaluated at […] for 48 hours. Two biological replicates per experimental group were evaluated for RNA. For gene analysis, RNA was harvested with RNEasy kit and 20-100 ng used to synthesize cDNA with random primers. Quantitative PCR was performed on 1 pg to 100 ng cDNA for the following genes: ACACA, ACLY, FASN, LSS, PNPLA3. Gene expression levels were normalized with housekeeping gene, β-Actin, and relative expression levels determined using ΔΔCT method comparing treated to mock or vehicle treated cells as a baseline. “Total” gene expression refers to the average of the values of the 5 genes listed above.
The effect of Compound Z-725 on expression of the genes ACACA, ACACB, ACLY, ACSS1, ACSS2, ELOVL6, FASN, HMGCR, LSS, MVK, PNPLA3, SREBP1, SREBP2, SCAP, SCD, and MVD was evaluated, following the procedure described in Example 52.

[1] = system: liver gene expression (ACACA, ACLY, FASN, LSS, PNPLA3); assay: Liver gene expression in mice after oral administration; format: in vivo; details: vs vehicle
Method in brief: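 Mice were dosed by oral gavage with compounds in 0.5% methylcellulose, with 5% N-methyl pyrrolidone added when needed, and unperfused livers were collected at 6 or 24 h. Liver RNA was reverse-transcribed with random primers and ACACA, ACLY, FASN, LSS and PNPLA3 were measured by qPCR. Fold change versus vehicle was derived by ΔΔCT, and the mean of the five genes is reported as Total Fold Change.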

[2] = In vivo pharmacokinetic properties in mice (IV and PO); set-up: species or system C57BL/6J mice; details: mouse, in vivo
Method in brief: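 Male C57BL/6J mice received 10 mg/kg orally; plasma sampled by retro-orbital capillary at 0.25–24 h. IV dosing described at 2.00 mg/kg via tail vein, plasma sampled 0.083–24 h.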

## CC(C)(C)c1cc(-c2cncc(-c3ccc(C(=O)N4CCC(O)CC4)cc3Cl)c2)ccn1 [Compound Z-725]
HepG2 cells
  ACACA gene expression: 0.4399
  ACACB gene expression: 0.5472
  ACLY gene expression: 0.3505
  ACSS1 gene expression: 0.2838
  ACSS2 gene expression: 0.4792
  ELOVL6 gene expression: 0.4432
  FASN gene expression: 0.2957
  HMGCR gene expression: 0.09282
  LSS gene expression: 0.2412
  MVD gene expression: 0.1984
  MVK gene expression: 0.05926
  PNPLA3 gene expression: 0.09989
  SCAP gene expression: 1.312
  SCD gene expression: 0.2009
  SREBP1 gene expression: 0.5489
  SREBP2 gene expression: 0.786
[1]; 10 mpk
  Total Gene FC Time (6 h): +++ (0-0.509 = +++)
  Total Gene FC Time (24 h): + (>0.751 = +)
[1]; 30 mpk
  Total Gene FC Time (6 h): +++ (0-0.509 = +++)
  Total Gene FC Time (24 h): + (>0.751 = +)
[2]
  % F (Bioavailability of oral delivery): 58%
[2]; iv, 2 mg/kg
  Intravenous Delivery (IV) AUC0-last: 1900 ng·h/mL
  Intravenous Delivery (IV) CL: 17.5 mL/min/kg
  Intravenous Delivery (IV) T1/2: 3.39 h
  Intravenous Delivery (IV) Vd: 5.13 L/kg
[2]; po, 10 mg/kg
  Oral Administration (PO) AUC0-last: 5400 ng·h/mL
  Oral Administration (PO) T1/2: 4.72 h
  Oral Administration (PO) Tmax: 1 h
